Measured values published in ChEMBL document CHEMBL1123536, “Studies on Ca2+ channel antagonists. 5-[(3,4-Dimethoxyphenethyl)methylamino]-2-(3,4-dimethoxyphenyl)-2- isopropylpentyl isothiocyanate, a chemoaffinity ligand derived from verapamil” (J Med Chem, 1986).

Columns and labels:
Rattus norvegicus [1] = species on record: Rattus norvegicus; assay: Compound was evaluated for the concentration dependent negative ionotropic effect in rat right myocardial ventricular strips; format: functional; details: Cardiac ventricle
Rattus norvegicus [2] = species on record: Rattus norvegicus; assay: Compound was evaluated for the displacement of [3H]gallopamil from specific binding sites on rat myocardial membrane particulates; details: Myocardium

EC50 (Rattus norvegicus [1]) [nM]	IC50 (Rattus norvegicus [2]) [nM]	Structure (SMILES)
1950	16	COc1ccc(CCN(C)CCCC(C#N)(c2cc(OC)c(OC)c(OC)c2)C(C)C)cc1OC (stereo unspecified) [GALLOPAMIL]
4560	342	COc1ccc(CCN(C)CCCC(CN=C=S)(c2ccc(OC)c(OC)c2)C(C)C)cc1OC (stereo unspecified)
2510	362	COc1ccc(CCN(C)CCCC(C#N)(c2ccc(OC)c(OC)c2)C(C)C)cc1OC (stereo unspecified) [VERAPAMIL]
